From patent US10647747B2, “Cyclosporin derivatives and uses thereof” (S&T Global Inc., priority 2010, dated 2020)
Read-outs that look alike come from different tables or passages of the source. *1 amine or outer side, *2 acyl side, *3 side chain or, on linkers, in order; H or OH if unused. Where a SMILES comes first, the peptide text is derived from it. [ ]: non-standard residue; d: D form. The star is where a group is joined. MeBmt = C/C=C/C[C@@H](C)[C@@H](O)[C@H](NC)C(=O)O; X14 = CCOCOC(C)(C)C[C@@H](C(=O)[*:2])N(C)[*:1]; X3 = CC=CCC(C)C(O)C(C(=O)[*:2])N(C)[*:1]; X13 = CCN(CC)CCCSC(C(=O)[*:2])N(C)[*:1]; X5 = CSCOC(C)(C)CC(C(=O)[*:2])N(C)[*:1]; X4 = CCN(CC)CCSC(C(=O)[*:2])N(C)[*:1]; NMeI = CC[CH](C)[CH](NC)C(=O)O; NMeL = CN[CH](CC(C)C)C(=O)O; NMeV = CN[CH](C(=O)O)C(C)C; dNMeC = CN[C@H](CS)C(=O)O; Et2NCH2CH2 = CCN(CC)CC*; NMeC = CN[CH](CS)C(=O)O; Abu = CC[CH](N)C(=O)O

Test system: HCV replicon in cell line ET (luc-ubi-neo/ET), Huh7 human hepatoma
Assay: HCV subgenomic replicon assay, luciferase end point
Format: cell-based
[1] = Table 13, HCV replicon luciferase, read-out: Antiviral activity EC50
[2] = HCV subgenomic replicon, cell line ET (luc-ubi-neo/ET) Huh7, luciferase end point, read-out: Antiviral activity EC50
[3] = Table 16, HCV replicon luciferase, read-out: Antiviral activity EC50
[4] = Table 12, HCV replicon luciferase, read-out: Antiviral activity EC50
[5] = Hepatitis C virus, Huh-7, Table 14, HCV replicon luciferase, read-out: Antiviral activity EC50

CC=CCC(C)C(O)C1C(=O)NC(CC)C(=O)N(C)C(SCCCN2CCOCC2)C(=O)N(C)C(CC(C)(C)O)C(=O)NC(C(C)C)C(=O)N(C)C(CC(C)C)C(=O)NC(C)C(=O)NC(C)C(=O)N(C)C(CC(C)C)C(=O)N(C)C(CC(C)C)C(=O)N(C)C(C(C)C)C(=O)N1C [[(S)-3-(N-Morpholino)propylthio-Sar]-3-[(γ-hydroxy)-N-MeLeu]-4-cyclosporin]
EC50 [1]: 0.05 µM

C/C=C/C[C@@H](C)[C@@H](O)[C@H]1C(=O)N[C@@H](CC)C(=O)N(C)[C@H](CSCCCN2CCOCC2)C(=O)N(C)[C@@H](CC(C)(C)O)C(=O)N[C@@H](C(C)C)C(=O)N(C)[C@@H](CC(C)C)C(=O)N[C@@H](C)C(=O)N[C@H](C)C(=O)N(C)[C@@H](CC(C)C)C(=O)N(C)[C@@H](CC(C)C)C(=O)N(C)[C@@H](C(C)C)C(=O)N1C
EC50 [2]: 0.05 µM | EC50 [3]: 0.04 µM

C/C=C/C[C@@H](C)[C@@H](O)[C@H]1C(=O)N[C@@H](CC)C(=O)N(C)[C@@H](CSCCN(CC)CC)C(=O)N(C)[C@@H](CC(C)(C)O)C(=O)N[C@@H](C(C)C)C(=O)N(C)[C@@H](CC(C)C)C(=O)N[C@@H](C)C(=O)N[C@H](C)C(=O)N(C)[C@@H](CC(C)C)C(=O)N(C)[C@@H](CC(C)C)C(=O)N(C)[C@@H](C(C)C)C(=O)N1C (single isomer, unassigned; isomer a)
EC50 [1]: 2.12 µM

CC=CCC(C)C(O)C1C(=O)NC(CC)C(=O)N(C)C(SCCNCC(C)(C)C)C(=O)N(C)C(CC(C)C)C(=O)NC(C(C)C)C(=O)N(C)C(CC(C)C)C(=O)NC(C)C(=O)NC(C)C(=O)N(C)C(CC(C)C)C(=O)N(C)C(CC(C)C)C(=O)N(C)C(C(C)C)C(=O)N1C [(S)-2-(N-neo-Pentylamino)ethylthio-Sar]-3-cyclosporin]
EC50 [4]: 0.23 µM

CC=CCC(C)C(O)C1C(=O)NC(CC)C(=O)N(C)C(CSCCN(C)CC(C)(C)C)C(=O)N(C)C(CC(C)(C)O)C(=O)NC(C(C)C)C(=O)N(C)C(CC(C)C)C(=O)NC(C)C(=O)NC(C)C(=O)N(C)C(CC(C)C)C(=O)N(C)C(CC(C)C)C(=O)N(C)C(C(C)C)C(=O)N1C (stereo not shown)
EC50 [2]: 0.07 µM

CC=CCC(C)C(O)C1C(=O)NC(CC)C(=O)N(C)C(CSCCN2CCCC2)C(=O)N(C)C(CC(C)(C)OC)C(=O)NC(C(C)C)C(=O)N(C)C(CC(C)C)C(=O)NC(C)C(=O)NC(C)C(=O)N(C)C(CC(C)C)C(=O)N(C)C(CC(C)C)C(=O)N(C)C(C(C)C)C(=O)N1C (stereo not shown)
EC50 [2]: 0.09 µM

C/C=C/C[C@@H](C)[C@@H](O)[C@H]1C(=O)N[C@@H](CC)C(=O)N(C)[C@H](CSCCN(CC)CC)C(=O)N(C)[C@@H](CC(C)(C)OCOCC)C(=O)N[C@@H](C(C)C)C(=O)N(C)[C@@H](CC(C)C)C(=O)N[C@@H](C)C(=O)N[C@H](C)C(=O)N(C)[C@@H](CC(C)C)C(=O)N(C)[C@@H](CC(C)C)C(=O)N(C)[C@@H](C(C)C)C(=O)N1C (cyclo(A[dA][NMeL][NMeL][NMeV][MeBmt][Abu][dNMeC](Et2NCH2CH2)[X14]V[NMeL]))
EC50 [5]: 0.02 µM

CC=CCC(C)C(O)C1C(=O)NC(CC)C(=O)N(C)C(CSCCCN2CCN(CC(C)(C)C)CC2)C(=O)N(C)C(CC(C)(C)O)C(=O)NC(C(C)C)C(=O)N(C)C(CC(C)C)C(=O)NC(C)C(=O)NC(C)C(=O)N(C)C(CC(C)C)C(=O)N(C)C(CC(C)C)C(=O)N(C)C(C(C)C)C(=O)N1C (stereo not shown)
EC50 [3]: 0.06 µM

CC=CCC(C)C(O)C1C(=O)NC(CC)C(=O)N(C)C(CSCCN(CC)C(C)C)C(=O)N(C)C(CC(C)(C)O)C(=O)NC(C(C)C)C(=O)N(C)C(CC(C)C)C(=O)NC(C)C(=O)NC(C)C(=O)N(C)C(CC(C)C)C(=O)N(C)C(CC(C)C)C(=O)N(C)C(C(C)C)C(=O)N1C (stereo not shown)
EC50 [2]: 0.07 µM

CC=CCC(C)C(O)C1C(=O)NC(CC)C(=O)N(C)C(COCCCN(CC)CC)C(=O)N(C)C(CC(C)(C)O)C(=O)NC(C(C)C)C(=O)N(C)C(CC(C)C)C(=O)NC(C)C(=O)NC(C)C(=O)N(C)C(CC(C)C)C(=O)N(C)C(CC(C)C)C(=O)N(C)C(C(C)C)C(=O)N1C (stereo not shown)
EC50 [2]: 0.18 µM

CC=CCC(C)C(O)C1C(=O)NC(CC)C(=O)N(C)C(SCCCN(CC)CC)C(=O)N(C)C(C(C)CC)C(=O)NC(C(C)C)C(=O)N(C)C(CC(C)C)C(=O)NC(C)C(=O)NC(C)C(=O)N(C)C(CC(C)C)C(=O)N(C)C(CC(C)C)C(=O)N(C)C(C(C)C)C(=O)N1C [[(S)-3-(N,N-Diethylamino)propylthio-Sar]-3-[N-MeIle]-4-cyclosporin] (cyclo([X3][Abu][X13][NMeI]V[NMeL]AA[NMeL][NMeL][NMeV]); configuration not given here)
EC50 [2]: 0.08 µM

CC=CCC(C)C(O)C1C(=O)NC(CC)C(=O)N(C)C(SCCCN(CC)CC)C(=O)N(C)C(CC(C)(C)O)C(=O)NC(C(C)C)C(=O)N(C)C(CC(C)C)C(=O)NC(C)C(=O)NC(C)C(=O)N(C)C(CC(C)C)C(=O)N(C)C(CC(C)C)C(=O)N(C)C(C(C)C)C(=O)N1C [(S)-3-(N,N-Diethylamino)propylthio-Sar]-3-[(γ-hydroxy)-N-MeLeu]-4-cyclosporin]
EC50 [1]: 0.07 µM

CC=CCC(C)C(O)C1C(=O)NC(CC)C(=O)N(C)C(CSCCN2CCN(C)CC2)C(=O)N(C)C(CC(C)(C)O)C(=O)NC(C(C)C)C(=O)N(C)C(CC(C)C)C(=O)NC(C)C(=O)NC(C)C(=O)N(C)C(CC(C)C)C(=O)N(C)C(CC(C)C)C(=O)N(C)C(C(C)C)C(=O)N1C (stereo not shown)
EC50 [2]: 0.09 µM

CC=CCC(C)C(O)C1C(=O)NC(CC)C(=O)N(C)C(SCCN(CC)CC)C(=O)N(C)C(CC(C)(C)OCSC)C(=O)NC(C(C)C)C(=O)N(C)C(CC(C)C)C(=O)NC(C)C(=O)NC(C)C(=O)N(C)C(CC(C)C)C(=O)N(C)C(CC(C)C)C(=O)N(C)C(C(C)C)C(=O)N1C (stereo not shown) (cyclo([X3][Abu][X4][X5]V[NMeL]AA[NMeL][NMeL][NMeV]); configuration not given here)
EC50 [4]: 0.11 µM

CC=CCC(C)C(O)C1C(=O)NC(CC)C(=O)N(C)C(CSCCN(CC(C)C)CC(C)C)C(=O)N(C)C(CC(C)(C)O)C(=O)NC(C(C)C)C(=O)N(C)C(CC(C)C)C(=O)NC(C)C(=O)NC(C)C(=O)N(C)C(CC(C)C)C(=O)N(C)C(CC(C)C)C(=O)N(C)C(C(C)C)C(=O)N1C (stereo not shown)
EC50 [2]: 0.12 µM

CC=CCC(C)C(O)C1C(=O)NC(CC)C(=O)N(C)C(CSCCN(CC)CC)C(=O)N(C)C(C(C)C)C(=O)NC(C(C)C)C(=O)N(C)C(CC(C)C)C(=O)NC(C)C(=O)NC(C)C(=O)N(C)C(CC(C)C)C(=O)N(C)C(CC(C)C)C(=O)N(C)C(C(C)C)C(=O)N1C [[(S)-(2-(N,N-Diethylamino)ethylthio)methyl-Sar]-3-[N-MeVal]-4-cyclosporin] (cyclo([X3][Abu][NMeC](Et2NCH2CH2)[NMeV]V[NMeL]AA[NMeL][NMeL][NMeV]); configuration not given here)
EC50 [2]: 0.14 µM

C/C=C/C[C@@H](C)[C@@H](O)[C@H]1C(=O)N[C@@H](CC)C(=O)N(C)[C@H](CSCCCN2CCN(CC(C)C)CC2)C(=O)N(C)[C@@H](CC(C)(C)O)C(=O)N[C@@H](C(C)C)C(=O)N(C)[C@@H](CC(C)C)C(=O)N[C@@H](C)C(=O)N[C@H](C)C(=O)N(C)[C@@H](CC(C)C)C(=O)N(C)[C@@H](CC(C)C)C(=O)N(C)[C@@H](C(C)C)C(=O)N1C
EC50 [3]: 0.05 µM

CC=CCC(C)C(O)C1C(=O)NC(CC)C(=O)N(C)C(SCCN(CC)CC)C(=O)N(C)C(CC(C)C)C(=O)NC(C(C)C)C(=O)N(C)C(CC(C)C)C(=O)NC(C)C(=O)NC(C)C(=O)N(C)C(CC(C)C)C(=O)N(C)C(CC(C)C)C(=O)N(C)C(C(C)C)C(=O)N1C [(S)-2-(N-Diethylamino)ethylthio-Sar]-3-cyclosporin]
EC50 [4]: 0.16 µM

CC=CCC(C)C(O)C1C(=O)NC(CC)C(=O)N(C)C(CSCCCNCC(C)(C)C)C(=O)N(C)C(CC(C)(C)O)C(=O)NC(C(C)C)C(=O)N(C)C(CC(C)C)C(=O)NC(C)C(=O)NC(C)C(=O)N(C)C(CC(C)C)C(=O)N(C)C(CC(C)C)C(=O)N(C)C(C(C)C)C(=O)N1C (stereo not shown)
EC50 [3]: 0.05 µM

C/C=C/C[C@@H](C)[C@@H](O)[C@H]1C(=O)N[C@@H](CC)C(=O)N(C)[C@H](CSCCN(CC)CC)C(=O)N(C)[C@@H](CC(C)C)C(=O)N[C@@H](C(C)C)C(=O)N(C)[C@@H](CC(C)C)C(=O)N[C@@H](C)C(=O)N[C@H](C)C(=O)N(C)[C@@H](CC(C)C)C(=O)N(C)[C@@H](CC(C)C)C(=O)N(C)[C@@H](C(C)C)C(=O)N1C (single isomer, unassigned; isomer b) [[(S)-(2-(N,N-Diethylamino)ethylthio)methyl-Sar]-3-cyclosporin (isomer B)]
EC50 [2]: 0.16 µM

C/C=C/C[C@@H](C)[C@@H](O)[C@H]1C(=O)N[C@@H](CC)C(=O)N(C)[C@H](CSCCN2CCCCC2)C(=O)N(C)[C@@H](CC(C)(C)O)C(=O)N[C@@H](C(C)C)C(=O)N(C)[C@@H](CC(C)C)C(=O)N[C@@H](C)C(=O)N[C@H](C)C(=O)N(C)[C@@H](CC(C)C)C(=O)N(C)[C@@H](CC(C)C)C(=O)N(C)[C@@H](C(C)C)C(=O)N1C
EC50 [5]: 0.04 µM

C/C=C/C[C@@H](C)[C@@H](O)[C@H]1C(=O)N[C@@H](CC)C(=O)N(C)[C@H](CSCCCN(CC)CC)C(=O)N(C)[C@@H](CC(C)(C)OC)C(=O)N[C@@H](C(C)C)C(=O)N(C)[C@@H](CC(C)C)C(=O)N[C@@H](C)C(=O)N[C@H](C)C(=O)N(C)[C@@H](CC(C)C)C(=O)N(C)[C@@H](CC(C)C)C(=O)N(C)[C@@H](C(C)C)C(=O)N1C
EC50 [2]: 0.07 µM

C/C=C/C[C@@H](C)[C@@H](O)[C@H]1C(=O)N[C@@H](CC)C(=O)N(C)[C@H](COCCCN2CCCCC2)C(=O)N(C)[C@@H](CC(C)(C)O)C(=O)N[C@@H](C(C)C)C(=O)N(C)[C@@H](CC(C)C)C(=O)N[C@@H](C)C(=O)N[C@H](C)C(=O)N(C)[C@@H](CC(C)C)C(=O)N(C)[C@@H](CC(C)C)C(=O)N(C)[C@@H](C(C)C)C(=O)N1C [[(R)-(3-(N-Piperidinyl)propoxy)methyl-Sar]-3-[(γ-hydroxy)-N-MeLeu]-4-cyclosporin]
EC50 [2]: 0.15 µM

C/C=C/C[C@@H](C)[C@@H](O)[C@H]1C(=O)N[C@@H](CC)C(=O)N(C)CC(=O)N(C)[C@@H](C(C)C)C(=O)N[C@@H](C(C)C)C(=O)N(C)[C@@H](CC(C)C)C(=O)N[C@@H](C)C(=O)N[C@H](C)C(=O)N(C)[C@@H](CC(C)C)C(=O)N(C)[C@@H](CC(C)C)C(=O)N(C)[C@@H](C(C)C)C(=O)N1C [[N-MeVal]-4-cyclosporin (SDZ 220-384), N-MeVal-4-Cyclosporin, reference compound]
EC50 (Hepatitis C virus, Huh-7, read-out: Antiviral activity EC50, Table 12, HCV replicon luciferase): 0.17 µM
